According to publication PMC9540667, “Novel insights on [1,2]oxazolo[5,4‐e]isoindoles on multidrug resistant acute myeloid leukemia cell line” (Drug Development Research, 2022):
Read-outs that look alike come from different tables or passages of the source.

How the values were obtained:
HL‐60R cells [1] = assay: Viable cell count with Trypan blue exclusion test (cotreatments); assay type: cell-based; conditions: for synergistic / potentiation effect with the reference drugs (VIN or PTX): cotreatment at sub-cytotoxic concentrations
Method: Potentiation or synergism due to cotreatments were evaluated by viable cell count with Trypan blue exclusion test. Data were expressed as mean ± SE of at least three different experiments performed in duplicate.

1‐7HB2 cells = assay: Cell growth assay (MTS), non-tumorigenic 1-7HB2 cells; assay type: cell-based; conditions: 72 h, the maximum concentration used in the MTS assay is reported
Method: (§1) HL‐60 cells were obtained from ATCC® (CCL‐240), whereas its variant HL‐60R was selected for MDR by exposure to gradually increasing concentrations of doxorubicin. MCF‐7 cells were obtained from ATCC® (HTB‐22). The nontumorigenic cell lines hTERT‐RPE‐1 (ATCC, CRL‐4010) and 1‐7HB2 (ECACC 10081201‐Cancer Research Technology) was kindly provided by Prof. Patrizia Cancemi and Prof. Giulio Ghersi (STEBICEF Department, University of Palermo, Italy), respectively. Cells were cultured in a humidified atmosphere at 37°C in 5% CO2. After obtaining the cells, the first passage carried out was assigned passage number 1. Cells with a narrow range of passage number […] were routinely tested for Mycoplasma contamination and were used for all experiments. HL‐60 and HL‐60R cells were cultured in Roswell Park Memorial Institute (RPMI) 1640, while MCF‐7, hTERT‐RPE‐1, and 1‐7HB‐2 cells were cultured in Dulbecco's Modified Eagle Medium (DMEM) (HyClone Europe Ltd.) low glucose, in particular only for 1‐7HB‐2 cells supplemented with hydrocortisone (5 μg/ml) and insulin (10 μg/ml). All media were supplemented with 10% heat‐inactivated fetal calf serum, 2 mM L‐glutamine, 100 U/ml penicillin, and 100 μg/ml streptomycin (all reagents were from EuroClone S.p.A.; GE Healthcare Life Sciences).
(§2) Cells were seeded at 5 × 10^3 cells/well onto 96 well plates and incubated overnight at 37°C. At time 0, the medium was replaced with fresh complete medium supplemented with the [1,2]oxazolo[5,4‐e]isoindoles at large concentrations range. Following 72 h of treatment, 15 µl commercial solution obtained from Promega Corp. containing 3‐(4,5‐dimethylthiazol‐2‐yl)−5‐(3‐carboxymethoxyphenyl)−2‐(4‐sulphophenyl)−2H‐tetrazolium (MTS) and phenazine ethosulfate was added. The plates were incubated in a humidified atmosphere at 37°C in 5% CO2 for 2 h, and the bioreduction of MTS dye was evaluated by measuring the absorbance of each well at 490 nm using a microplate absorbance reader (iMark Microplate Reader; Bio‐Rad Laboratories, Inc.). Cell growth inhibition was expressed as a percentage of the absorbance of the control cells. Data were expressed as mean ± standard error (SE) of at least three different experiments performed in triplicate.

MCF‐7 cells = assay: Cell growth assay (MTS), MCF-7 breast cancer cells; assay type: cell-based; conditions: the maximum concentration used in the MTS assay is reported
Method: as §1, §2

hTERT‐RPE‐1 cells = assay: Cell growth assay (MTS), non-tumorigenic hTERT-RPE-1 cells; assay type: cell-based; conditions: the maximum concentration used in the MTS assay is reported, read-out: h‐TERT‐RPE‐1 (IC50)
Method: as §1, §2

tubulin in HL‐60 cells = assay: Tubulin polymerization assay (soluble/polymerized fraction, western blot), HL-60; assay type: cell-based; conditions: HL-60, 24 h at the IC50 at 72 h
Method: (§3) To separate cytosolic and cytoskeletal‐associated proteins, cells were rinsed in PEM buffer (0.1 M PIPES, pH 6.94; 2 mM EGTA; 1 mM MgCl2; 10% glycerol; 1 µM protease inhibitors cocktail; 0.5% Nonidet NP‐40), lysed at room temperature for 10 min with the same buffer (200 µl). After centrifugation (14,000 rpm at 4°C for 10 min), the soluble fraction (supernatant) was separated from polymerized fraction (pellet); the latter was resuspended in the same buffer (200 µl).
(§4) Both the fractions were then diluted 3:1 with 4 × SDS‐PAGE sample buffer. Proteins were separated by SDS‐PAGE, and tubulin distribution was analyzed by immunoblotting using anti‐α‐tubulin antibody (Sigma‐Aldrich). Hybridization was visualized using an enhanced chemiluminescence detection kit (SuperSignal West Femto Maximum Sensitivity Substrate, Thermo Scientific Life Technologies Italia) and the Versa DOC imaging system (BioRad Laboratories).

HL‐60R cells [2] = assay: Cell death by flow cytometry (propidium iodide, preG0-G1 events); assay type: cell-based
Method: Cells were collected and washed twice with ice‐cold PBS and then resuspended in a hypotonic fluorochrome solution containing propidium iodide (PI) 50 µg/ml in 0.1% sodium citrate plus 0.03% (v/v) Nonidet P‐40, at 1 × 10^6/ml. After incubation (at least 1 h at 4°C) in this solution, the samples were filtered through nylon cloth, 40 µm mesh, and their fluorescence was analyzed using a FACSCanto instrument (Becton Dickinson). The data were analyzed with BD FACSDiva software v.6.1.2. (Becton Dickinson). Cell death was determined by evaluating the percentage of events accumulated in the preG0‐G1 position.

HL‐60R cells [3] = assay: Cell growth assay (MTS), HL-60R MDR variant; assay type: cell-based; conditions: 72 h of treatment, mean ± SE
Method: as §1, §2

HL‐60 cells = assay: Cell growth assay (MTS), HL-60 cells; assay type: cell-based; conditions: mean ± SE
Method: as §1, §2

tubulin in HL‐60R cells = assay: Tubulin polymerization assay (soluble/polymerized fraction, western blot), HL-60R; assay type: cell-based; conditions: 24 h at the IC50 at 72 h
Method: as §3, §4

HL‐60R cell line = assay: Intracellular accumulation of doxorubicin (flow cytometry); assay type: cell-based
Method: The effects of 4e and 4k on intracellular accumulation of doxorubicin were evaluated in the HL‐60R cell line. […] After 24 h of incubation doxorubicin 2 µM was added for 1 h. The cells were subsequently washed with PBS twice and then resuspended in a final volume of 400 µl of PBS. The fluorescence intensity of doxorubicin was measured by flow cytometry using a FACSAria III instrument (Becton Dickinson).

[4] = system: XIAP, IAP‐1, Bcl‐2 in HL‐60R cells; assay: Western blot of antiapoptotic factors (survivin, XIAP, IAP-1, Bcl-2); assay type: cell-based; conditions: co-treatment of 4k and PTX
Method: Whole‐cell lysates were obtained from HL‐60R cells using RIPA buffer (Santa Cruz Biotechnology Inc.) and 25 µg protein was subjected to 10% SDS‐PAGE and transferred to nitrocellulose membrane (Amersham, Pharmacia Biotech) using a semi‐dry fast blot apparatus (Bio‐Rad). Membranes were blocked with 5% (w/v) BSA in PBS‐0.1% (v/v) Tween 20 for 1 h and then filters were incubated with primary antibodies raised against GAPDH (1:20,000; Sigma‐Aldrich Srl Milan), XIAP (1:500; Cell Signaling Technology, Inc), survivin (1:2000; Abcam Limited), Bcl‐2 (1:1000; Santa Cruz Biotechnology Inc.) and IAP‐1 (1:1000; Cell Signaling Technology, Inc). Hybridization was visualized using an enhanced chemiluminescence detection kit (SuperSignal West Femto Maximum Sensitivity Substrate, Thermo Scientific Life Technologies Italia) and the Versa DOC imaging system (BioRad Laboratories). Immunoblots were quantified by densitometry measurements after normalization with glyceraldehyde‐3‐phosphate dehydrogenase and results were expressed as fold changes.

[5] = target: T1, recombinant human P‐gp membranes (Homo sapiens, UniProt P08183); assay: P-gp ATPase activity (Pgp-Glo assay); assay type: biochemical; conditions: compound at its IC50; verapamil 0.5 mM
T1 construct: purchased Promega
Method: P‐gp ATPase activity was performed with Pgp‐Glo™ Assay Systems (Promega) following manufacturer's instructions. The compounds 4e and 4k, at their IC50s (test compound [TC]) were added to a 96‐well white plate in duplicate and incubated with recombinant human P‐gp membranes. The compound Na3VO4 (0.25 mM) was used as the selective inhibitor of P‐gp ATPase activity while negative control (no treatment [NT]) with only Pgp‐GLO assay buffer was used to provide a measure of unregulated ATPase activity. Verapamil (0.5 mM) is a P‐gp substrate that stimulates P‐gp ATPase activity and represents the positive control for drug stimulation of P‐gp ATPase activity. In fact, it is not a pure inhibitor of P‐gp function as well as Na3VO4, but in association with another P‐gp substrate like doxorubicin, it behaves as a competitive antagonist, that is, an efflux inhibitor. […]
Luminescence was measured using a GLOMAX Multidetection System (Promega). The data were presented as change in luminescence (ΔRLU), calculated as follows: ΔRLUbasal is the difference between the average luminescent signals from Na3VO4‐treated samples (RLUNa3VO4) and untreated (NT) samples (RLUNT), ΔRLUTC that reflects P‐gp ATPase activity in the presence of the test compounds, is the difference between the average luminescent signals from Na3VO4‐treated samples (RLUNa3VO4) and test compound‐treated samples (RLUTC).

[6] = Homo sapiens, HL-60, 72 h of treatment

T1 sequence (P08183 whole entry): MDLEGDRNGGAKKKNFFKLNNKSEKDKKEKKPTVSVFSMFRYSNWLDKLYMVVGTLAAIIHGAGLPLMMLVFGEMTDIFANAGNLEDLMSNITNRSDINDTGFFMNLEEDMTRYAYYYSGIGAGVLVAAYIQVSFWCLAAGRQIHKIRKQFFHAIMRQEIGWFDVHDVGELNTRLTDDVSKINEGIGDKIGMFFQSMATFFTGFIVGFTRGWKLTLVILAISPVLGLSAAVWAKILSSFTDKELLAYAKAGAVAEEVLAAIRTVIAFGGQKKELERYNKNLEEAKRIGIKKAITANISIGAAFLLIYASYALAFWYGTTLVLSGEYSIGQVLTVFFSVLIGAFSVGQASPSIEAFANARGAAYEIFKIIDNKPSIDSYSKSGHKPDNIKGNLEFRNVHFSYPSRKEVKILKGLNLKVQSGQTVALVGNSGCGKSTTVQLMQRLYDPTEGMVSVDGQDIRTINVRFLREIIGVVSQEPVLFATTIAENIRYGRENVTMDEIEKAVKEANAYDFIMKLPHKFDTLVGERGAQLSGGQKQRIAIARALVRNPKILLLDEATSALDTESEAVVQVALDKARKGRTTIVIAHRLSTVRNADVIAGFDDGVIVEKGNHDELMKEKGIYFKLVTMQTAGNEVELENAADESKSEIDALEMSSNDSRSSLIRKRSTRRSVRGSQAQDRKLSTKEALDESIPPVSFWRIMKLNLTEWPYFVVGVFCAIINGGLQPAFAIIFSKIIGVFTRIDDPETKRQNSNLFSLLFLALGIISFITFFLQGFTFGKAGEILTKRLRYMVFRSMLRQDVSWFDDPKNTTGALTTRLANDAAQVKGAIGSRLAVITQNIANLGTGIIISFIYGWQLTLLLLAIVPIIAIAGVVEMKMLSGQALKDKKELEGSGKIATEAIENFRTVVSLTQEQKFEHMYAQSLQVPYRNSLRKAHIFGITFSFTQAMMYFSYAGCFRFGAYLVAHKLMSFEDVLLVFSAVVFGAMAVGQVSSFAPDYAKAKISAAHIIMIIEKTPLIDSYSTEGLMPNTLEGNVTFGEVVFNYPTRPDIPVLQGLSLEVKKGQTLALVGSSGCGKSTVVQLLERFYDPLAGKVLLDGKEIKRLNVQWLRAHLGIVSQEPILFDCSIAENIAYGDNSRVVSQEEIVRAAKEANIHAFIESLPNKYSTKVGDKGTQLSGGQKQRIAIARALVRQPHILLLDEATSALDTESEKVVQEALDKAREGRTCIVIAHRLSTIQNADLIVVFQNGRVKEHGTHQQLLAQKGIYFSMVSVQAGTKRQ

SMILES	IC50 (MCF‐7 cells; 72 h) [µM]	IC50 (HL‐60R cells [3]; HL60R) [µM]	IC50 (HL‐60 cells; [6]) [µM]	IC50 (HL‐60R cells [3]) [µM]	IC50 (HL‐60 cells; 72 h of treatment) [µM]	synergistic / potentiation effect with the reference drugs (VIN or PTX) (HL‐60R cells [1])	IC50 (1‐7HB2 cells) [µM]	IC50 (hTERT‐RPE‐1 cells; 72 h) [µM]	further results
CC(=O)O[C@H]1C(=O)[C@@]2(C)[C@H]([C@H](OC(=O)c3ccccc3)[C@]3(O)C[C@H](OC(=O)[C@H](O)[C@@H](NC(=O)c4ccccc4)c4ccccc4)C(C)=C1C3(C)C)[C@]1(OC(C)=O)CO[C@@H]1C[C@@H]2O [Paclitaxel, reference compound]	–	1.3 ± 0.14	0.02 ± 0.04	–	–	–	–	–	effect on soluble / polymerized tubulin fraction (tubulin in HL‐60 cells): marked increase in the polymerized fraction; Percentage of events accumulated in the pre G0‐G1 position (cell death) (HL‐60R cells [2]; 48 h, 1 µM): 7.6%; inhibition at 1 µM (HL‐60R cells [1]; HL60R, 48 h, alone at 1 µM, read-out: Cell growth inhibition (%)): 13 ± 9.2%; effect on soluble / polymerized tubulin fraction (tubulin in HL‐60R cells): marked increase in the polymerized fraction
COc1ccc(CCN(C)CCCC(C#N)(c2ccc(OC)c(OC)c2)C(C)C)cc1OC (stereo not drawn) [Verapamil, reference compound]	–	–	–	–	–	–	–	–	Fluorescence (%) HL‐60R (HL‐60R cell line; 10 µM for 24 h, without doxorubicin): 0.3 ± 0.1%; Fluorescence (%) HL‐60R (intracellular accumulation of doxorubicin) (HL‐60R cell line; pretreated 10 µM for 24 h + Doxo 2 µM 1 h): 58.5 ± 2.5 %
COc1cccc2c1C(=O)c1c(O)c3c(c(O)c1C2=O)C[C@@](O)(C(=O)CO)C[C@@H]3O[C@H]1C[C@H](N)[C@H](O)[C@H](C)O1 [Doxorubicin, doxorubicin, reference compound]	–	–	–	–	–	–	–	–	Fluorescence (%) HL‐60R (HL‐60R cell line; Doxo 2 µM 1 h alone): 4.4%; Fluorescence (%) HL‐60R (HL‐60R cell line; Doxo 2 µM 1 h alone, listed as Doxo): 4.4 ± 0.3%
CC[C@]1(O)C[C@@H]2CN(CCc3c([nH]c4ccccc34)[C@@](C(=O)OC)(c3cc4c(cc3OC)N(C)[C@H]3[C@@](O)(C(=O)OC)[C@H](OC(C)=O)[C@]5(CC)C=CCN6CC[C@]43[C@@H]65)C2)C1 [Vinblastine, reference compound]	–	0.82 ± 0.02	0.05	–	–	–	–	–	inhibition at 0.3 µM (HL‐60R cells [1]; HL60R, 48 h, alone at 0.3 µM, read-out: Cell growth inhibition (%)): 0%

Continued, in another order:

IC50 (MCF‐7 cells; 72 h) [µM]	IC50 (HL‐60R cells [3]; HL60R) [µM]	IC50 (HL‐60 cells; [6]) [µM]	IC50 (HL‐60R cells [3]) [µM]	IC50 (HL‐60 cells; 72 h of treatment) [µM]	SMILES	synergistic / potentiation effect with the reference drugs (VIN or PTX) (HL‐60R cells [1])	IC50 (1‐7HB2 cells) [µM]	IC50 (hTERT‐RPE‐1 cells; 72 h) [µM]	further results
> 50	–	–	–	–	COc1cccc(Cn2cc3c(c2)-c2oncc2CC3)c1 [4c]	synergistic effect	> 5	> 5	Cell growth inhibition (%) (HL‐60R cells [1]; 48 h, alone at 0.2 µM): 42.5 ± 0.3%
> 50	–	–	2.4 ± 0.8	2.1 ± 0.4	COc1ccccc1Cn1cc2c(c1)-c1oncc1CC2 [4b]	–	> 20	> 20	–
> 50	–	–	2.1 ± 0.2	1.9 ± 0.9	c1ccc(Cn2cc3c(c2)-c2oncc2CC3)cc1 [4a]	synergistic effect	> 20	> 20	Cell growth inhibition (%) (HL‐60R cells [1]; 48 h, alone at 1 µM): 2.5 ± 1.8%
> 5	–	–	–	–	COc1cc(Cn2cc3c(c2)-c2oncc2CC3)cc(OC)c1OC [4e]	not detected any potentiation	> 0.1	> 0.1	Fluorescence (%) HL‐60R (HL‐60R cell line; 0.04 µM for 24 h, without doxorubicin): 0.2 ± 0.07%; Fluorescence (%) HL‐60R (intracellular accumulation of doxorubicin) (HL‐60R cell line; pretreated 0.04 µM for 24 h + Doxo 2 µM 1 h): 8.8 ± 0.3 %
> 50	–	–	0.7 ± 0.09	0.6 ± 0.01	COc1ccc(Cn2cc3c(c2)-c2oncc2CC3)cc1OC [4d]	–	> 5	> 5	–
–	5.5 ± 1.4	3 ± 0.25	–	–	COc1ccc(Cn2cc3c(c2-c2cc(OC)c(OC)c(OC)c2)CCc2cnoc2-3)cc1OC [4k, 7‐(3,4‐dimethoxybenzyl)−6‐(3,4,5‐trimethoxyphenyl)−5,7‐dihydro‐4H‐[1,2]oxazolo[5,4‐e]isoindole]	synergistic effect	> 20	–	effect on soluble / polymerized tubulin fraction (tubulin in HL‐60 cells): increasing the soluble fraction of tubulin; synergistic effect in induction of cell death (HL‐60R cells [2]; HL-60R, in combination with PTX and VIN): strong synergistic effect; protein expression of antiapoptotic factors XIAP, IAP‐1 and Bcl‐2 [4]: substantial protein expression decrease; effect on verapamil‐stimulated P‐gp ATPase activity [5]: significative increase; IC50 (MCF‐7 cells; Homo sapiens, MCF7, 72 h): > 50 µM; Fluorescence (%) HL‐60R (HL‐60R cell line; 5.50 µM for 24 h, without doxorubicin): 0.3 ± 0.1%; Fluorescence (%) HL‐60R (intracellular accumulation of doxorubicin) (HL‐60R cell line; pretreated 5.50 µM for 24 h + Doxo 2 µM 1 h): 22.5 ± 1.1 %; IC50 (hTERT‐RPE‐1 cells; hTERT-RPE1, 72 h): > 20 µM; effect on soluble / polymerized tubulin fraction (tubulin in HL‐60R cells): increasing the soluble fraction of tubulin
